From patent publication US8124610B2, “Sodium channel inhibitors” (Icagen Inc., priority 2007, dated 2012)

Biological target: T1, hSCN9A (Homo sapiens, UniProt Q15858)
T1 construct: expressed in transfected cells
Experiment: Whole-cell patch-clamp electrophysiology (conventional or PatchXpress), HEK cells expressing hSCN9A, estimated IC-50
Assay type: cell-based
Conditions: estimated IC-50, HEK cells expressing hSCN9A; class symbols or bounds; read-out: SCN9A EIC-50
Protocol: Human Embryonic Kidney (HEK) cells were transfected with hSCN3A or hSCN9A constructs using lipofectamine reagent (Invitrogen), using standard techniques. Cells stably expressing the hSCN3A or hSCN9A constructs were identified by their resistance to G-418 (400 μg/ml). Clones were screened for expression using the whole-cell voltage-clamp technique. HEK cells stably transfected with hSCN3A or hSCN9A were maintained in DMEM medium supplemented with 10% heat-inactivated fetal bovine serum and 400 μg/ml G418 sulfate in an incubator at 37° C. with a humidified atmosphere of 10% CO2. For HTS, cells were harvested from flasks by trypsinization and replated in an appropriate multi-well plate (typically 96 or 384 wells/plate) such that confluence would be achieved within 24 hours of plating. For electrophysiological studies, cells were removed from the culture flask by brief trypsinization and replated at low density onto glass cover slips. Cells were typically used for electrophysiological experiments within 24 to 72 h after plating. Cover slips containing HEK cells expressing hSCN3A or hSCN9A were placed in a bath on the stage of an inverted microscope and perfused (approximately 1 ml/min) with extracellular solution of the following composition: 138 mM NaCl, 2 mM CaCl2, 5.4 mM KCl, 1 mM MgCl2, 10 mM glucose, and 10 mM HEPES, pH 7.4, with NaOH. […] All recordings were made at room temperature (22-24° C.) using AXOPATCH 200B amplifiers and PCLAMP software (Axon Instruments, Burlingame, Calif.) or PatchXpress 7000 hardware and associated software (Axon Instruments, Burlingame, Calif.). hSCN3A or hSCN9A currents in HEK cells were measured using the whole-cell configuration of the patch-clamp technique (Hamill et al., 1981). […] As a result, voltage errors were negligible and no correction was applied. Current records were acquired at 20 to 50 KHz and filtered at 5 to 10 KHz. HEK cells stably transfected with hSCN3A or hSCN9A were viewed under Hoffman contrast optics and placed in front of an array of flow pipes emitting either control or compound-containing extracellular solutions. All compounds were dissolved in dimethyl sulfoxide to make 10 mM stock solutions, which were then diluted into extracellular solution to attain the final concentrations desired. […] The voltage-dependence of inactivation was determined by applying a series of depolarizing prepulses (8 sec long in 10 mV increments) from a negative holding potential. The voltage was then immediately stepped to 0 mV to assess the magnitude of the sodium current. Currents elicited at 0 mV were plotted as a function of prepulse potential to allow estimation of the voltage midpoint of inactivation (V1/2). Cells were then voltage clamped at the empirically determined V1/2. Compounds were tested for their ability to inhibit hSCN3A or hSCN9A sodium channels by activating the channel with a 20 msec voltage step to 0 mV following an 8 second conditioning prepulse to the empirically determined V1-2 (Table B). Compound effect (% inhibition) was determined by difference in current amplitude before and after application of test compounds. […] In some cases electrophysiological assays were conducted with PatchXpress 7000 hardware and associated software (Molecular Devices Corp) (Table B). All assay buffers and solutions were identical to those used in conventional whole-cell voltage clamp experiments described above. hSCN3A or hSCN9A containing cells were grown as above to 50%-80% confluency and harvested by trypsinization. Trypsinized cells were washed and resuspended in extracellular buffer at a concentration of 1×10^6 cells/ml. The onboard liquid handling facility of the PatchXpress was used for dispensing cells and application of test compounds. Determination of the voltage midpoint of inactivation was as described for conventional whole-cell recordings. Cells were then voltage-clamped to the empirically determined V1/2 and current was activated by a 20 msec voltage step to 0 mV.

T1 sequence (Q15858 whole entry): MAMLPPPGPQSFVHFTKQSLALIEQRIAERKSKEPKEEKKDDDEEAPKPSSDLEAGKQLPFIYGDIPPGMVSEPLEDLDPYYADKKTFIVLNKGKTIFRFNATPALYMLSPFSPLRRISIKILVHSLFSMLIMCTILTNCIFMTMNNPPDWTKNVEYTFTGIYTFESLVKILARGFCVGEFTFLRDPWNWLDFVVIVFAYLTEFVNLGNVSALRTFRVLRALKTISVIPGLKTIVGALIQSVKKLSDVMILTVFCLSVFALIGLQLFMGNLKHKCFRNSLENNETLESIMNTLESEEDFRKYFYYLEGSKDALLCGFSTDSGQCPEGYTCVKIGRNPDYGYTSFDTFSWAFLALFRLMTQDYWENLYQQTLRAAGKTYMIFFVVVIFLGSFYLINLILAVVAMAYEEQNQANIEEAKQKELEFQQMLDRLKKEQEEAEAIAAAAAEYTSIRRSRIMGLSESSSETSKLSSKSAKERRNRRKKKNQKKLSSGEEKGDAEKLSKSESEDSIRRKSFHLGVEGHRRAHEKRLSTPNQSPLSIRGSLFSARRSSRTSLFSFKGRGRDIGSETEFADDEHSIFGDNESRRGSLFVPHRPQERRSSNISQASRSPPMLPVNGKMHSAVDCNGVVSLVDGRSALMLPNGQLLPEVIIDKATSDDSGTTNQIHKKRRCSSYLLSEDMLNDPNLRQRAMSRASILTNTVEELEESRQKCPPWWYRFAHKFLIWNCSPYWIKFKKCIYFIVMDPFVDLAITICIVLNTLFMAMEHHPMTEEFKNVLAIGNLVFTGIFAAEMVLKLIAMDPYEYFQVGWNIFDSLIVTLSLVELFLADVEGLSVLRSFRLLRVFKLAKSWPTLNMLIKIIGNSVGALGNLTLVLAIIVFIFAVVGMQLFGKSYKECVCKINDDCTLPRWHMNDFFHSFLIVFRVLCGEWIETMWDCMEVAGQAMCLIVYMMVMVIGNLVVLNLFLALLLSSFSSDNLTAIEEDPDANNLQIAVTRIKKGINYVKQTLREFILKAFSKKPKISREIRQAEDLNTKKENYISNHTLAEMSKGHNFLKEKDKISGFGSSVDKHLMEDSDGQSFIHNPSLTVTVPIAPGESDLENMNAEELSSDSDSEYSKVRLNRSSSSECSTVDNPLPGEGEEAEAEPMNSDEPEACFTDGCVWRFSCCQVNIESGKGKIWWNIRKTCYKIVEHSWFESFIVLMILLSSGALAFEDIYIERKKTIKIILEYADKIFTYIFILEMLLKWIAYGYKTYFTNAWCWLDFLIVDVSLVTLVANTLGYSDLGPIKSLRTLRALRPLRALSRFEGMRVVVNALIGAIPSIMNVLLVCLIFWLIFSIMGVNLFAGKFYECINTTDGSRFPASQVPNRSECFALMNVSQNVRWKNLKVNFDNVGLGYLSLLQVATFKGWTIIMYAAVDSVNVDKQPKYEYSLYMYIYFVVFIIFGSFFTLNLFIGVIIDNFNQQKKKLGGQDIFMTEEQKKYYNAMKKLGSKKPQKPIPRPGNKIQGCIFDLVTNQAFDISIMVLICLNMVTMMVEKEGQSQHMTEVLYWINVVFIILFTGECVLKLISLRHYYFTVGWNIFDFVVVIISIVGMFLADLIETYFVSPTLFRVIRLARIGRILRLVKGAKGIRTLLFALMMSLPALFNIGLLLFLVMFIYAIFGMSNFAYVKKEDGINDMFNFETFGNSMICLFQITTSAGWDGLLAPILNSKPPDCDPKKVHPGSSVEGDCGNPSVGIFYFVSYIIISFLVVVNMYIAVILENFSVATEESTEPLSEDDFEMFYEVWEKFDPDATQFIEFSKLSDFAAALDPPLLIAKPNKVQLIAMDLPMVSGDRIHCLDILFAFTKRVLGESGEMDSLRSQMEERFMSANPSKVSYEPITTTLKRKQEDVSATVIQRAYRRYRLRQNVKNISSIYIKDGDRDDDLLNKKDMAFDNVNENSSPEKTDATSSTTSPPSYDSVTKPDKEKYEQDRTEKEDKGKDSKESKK

Structure (SMILES) | IC50 [nM]
CC(C)(C)n1nc(Cc2cccc(Cl)c2)cc1Nc1ccc(S(=O)(=O)Nc2nccs2)cc1F [Compound 195, 4-(1-tert-butyl-3-(3-chlorobenzyl)-1H-pyrazol-5-ylamino)-3-fluoro-N-(thiazol-2-yl)benzenesulfonamide] | < 2000
Cn1nc(Cc2ccc(Cl)c(F)c2)cc1Nc1ccc(S(=O)(=O)Nc2nccs2)cc1 [Compound 196, 4-(3-(4-chloro-3-fluorobenzyl)-1-methyl-1H-pyrazol-5-ylamino)-N-(thiazol-2-yl)benzenesulfonamide] | < 2000
O=S(=O)(Nc1nccs1)c1ccc(Nc2ccn(Cc3ccc(Cl)cc3F)n2)cc1F [Compound 197, 4-(1-(4-chloro-2-fluorobenzyl)-1H-pyrazol-3-ylamino)-2-fluoro-N-(thiazol-2-yl)benzenesulfonamide] | < 2000
O=S(=O)(Nc1nccs1)c1ccc(Nc2ncn(Cc3ccc(Cl)cc3)n2)c(F)c1 [Compound 199, 4-(1-(4-chlorobenzyl)-1H-1,2,4-triazol-3-ylamino)-3-fluoro-N-(thiazol-2-yl)benzenesulfonamide] | < 2000
O=S(=O)(Nc1nccs1)c1ccc(Nc2ncn(Cc3cccc(C(F)(F)F)c3)n2)c(F)c1 [Compound 200, 3-fluoro-N-(thiazol-2-yl)-4-(1-(3-(trifluoromethyl)benzyl)-1H-1,2,4-triazol-3-ylamino)benzenesulfonamide] | < 2000
Cc1cc(Nc2ccc(S(=O)(=O)Nc3nccs3)c(F)c2)n(C2CCN(C)CC2)n1 [Compound 202, 2-fluoro-4-(3-methyl-1-(1-methylpiperidin-4-yl)-1H-pyrazol-5-ylamino)-N-(thiazol-2-yl)benzenesulfonamide] | 2000 to 10000
Cc1cc(Nc2ccc(S(=O)(=O)Nc3nccs3)cc2F)n(-c2ccccc2F)n1 [Compound 203, 3-fluoro-4-(1-(2-fluorophenyl)-3-methyl-1H-pyrazol-5-ylamino)-N-(thiazol-2-yl)benzenesulfonamide] | < 2000
O=S(=O)(Nc1nccs1)c1ccc(Nc2ncn(Cc3ccc(F)cc3Cl)n2)c(F)c1 [Compound 207, 4-(1-(2-chloro-4-fluorobenzyl)-1H-1,2,4-triazol-3-ylamino)-3-fluoro-N-(thiazol-2-yl)benzenesulfonamide] | < 2000
O=S(=O)(Nc1nccs1)c1ccc(Nc2ncn(Cc3ccccc3Cl)n2)c(F)c1 [Compound 208, 4-(1-(2-chlorobenzyl)-1H-1,2,4-triazol-3-ylamino)-3-fluoro-N-(thiazol-2-yl)benzenesulfonamide] | < 2000
Cn1nc(Cc2ccc(Cl)c(F)c2)cc1Nc1ccc(S(=O)(=O)Nc2nccs2)cc1F [Compound 209, 4-(3-(4-chloro-3-fluorobenzyl)-1-methyl-1H-pyrazol-5-ylamino)-3-fluoro-N-(thiazol-2-yl)benzenesulfonamide] | < 2000
Cn1nc(Cc2ccc(Cl)c(F)c2)cc1Nc1ccc(S(=O)(=O)Nc2nccs2)c(F)c1 [Compound 210, 4-(3-(4-chloro-3-fluorobenzyl)-1-methyl-1H-pyrazol-5-ylamino)-2-fluoro-N-(thiazol-2-yl)benzenesulfonamide] | < 2000
O=S(=O)(Nc1nccs1)c1ccc(Nc2ccn(Cc3ccccc3)n2)cc1F [Compound 211, 4-(1-benzyl-1H-pyrazol-3-ylamino)-2-fluoro-N-(thiazol-2-yl)benzenesulfonamide] | 2000 to 10000
O=S(=O)(Nc1nccs1)c1ccc(Nc2ccn(Cc3ccc(Cl)cc3)n2)cc1C(F)(F)F [Compound 212, 4-(1-(4-chlorobenzyl)-1H-pyrazol-3-ylamino)-N-(thiazol-2-yl)-2-(trifluoromethyl)benzenesulfonamide] | 2000 to 10000
CN(C)C(=O)Cc1cc(Nc2ccc(S(=O)(=O)Nc3nccs3)c(F)c2)n(-c2ccccc2)n1 [Compound 213, 2-(5-(3-fluoro-4-(N-thiazol-2-ylsulfamoyl)phenylamino)-1-phenyl-1H-pyrazol-3-yl)-N,N-dimethylethanamide] | 2000 to 10000
COc1ccccc1-n1nc(C(C)(C)C)cc1Nc1ccc(S(=O)(=O)Nc2nccs2)c(F)c1 [Compound 214, 4-(3-tert-butyl-1-(2-methoxyphenyl)-1H-pyrazol-5-ylamino)-2-fluoro-N-(thiazol-2-yl)benzenesulfonamide] | < 2000
COc1ccccc1-n1nc(C)cc1Nc1ccc(S(=O)(=O)Nc2nccs2)cc1F [Compound 215, 3-fluoro-4-(1-(2-methoxyphenyl)-3-methyl-1H-pyrazol-5-ylamino)-N-(thiazol-2-yl)benzenesulfonamide] | < 2000
O=S(=O)(Nc1nccs1)c1ccc(Nc2ccn(Cc3ccc(F)cc3)n2)cc1F [Compound 217, 2-fluoro-4-(1-(4-fluorobenzyl)-1H-pyrazol-3-ylamino)-N-(thiazol-2-yl)benzenesulfonamide] | < 2000
Cn1nc(Cc2cccc(Cl)c2)cc1Nc1ccc(S(=O)(=O)Nc2nccs2)cc1 [Compound 218, 4-(3-(3-chlorobenzyl)-1-methyl-1H-pyrazol-5-ylamino)-N-(thiazol-2-yl)benzenesulfonamide] | < 2000
Cn1nc(Cc2cccc(Cl)c2)cc1Nc1ccc(S(=O)(=O)Nc2nccs2)cc1F [Compound 219, 4-(3-(3-chlorobenzyl)-1-methyl-1H-pyrazol-5-ylamino)-3-fluoro-N-(thiazol-2-yl)benzenesulfonamide] | < 2000
COc1cccc(-n2nc(C)cc2Nc2ccc(S(=O)(=O)Nc3nccs3)c(F)c2)c1 [Compound 220, 2-fluoro-4-(1-(3-methoxyphenyl)-3-methyl-1H-pyrazol-5-ylamino)-N-(thiazol-2-yl)benzenesulfonamide] | < 2000
NC(=O)c1cn(Cc2ccc(Cl)cc2)nc1Nc1ccc(S(=O)(=O)Nc2nccs2)c(F)c1 [Compound 221, 1-(4-chlorobenzyl)-3-(3-fluoro-4-(N-thiazol-2-ylsulfamoyl)phenylamino)-1H-pyrazole-4-carboxamide] | 2000 to 10000
COc1ccccc1-c1cc(Nc2ccc(S(=O)(=O)Nc3nccs3)c(F)c2)n(C)n1 [Compound 223, 2-fluoro-4-(3-(2-methoxyphenyl)-1-methyl-1H-pyrazol-5-ylamino)-N-(thiazol-2-yl)benzenesulfonamide] | < 2000
COc1ccc(Cn2ccc(Nc3ccc(S(=O)(=O)Nc4nccs4)c(F)c3)n2)cc1 [Compound 224, 2-fluoro-4-(1-(4-methoxybenzyl)-1H-pyrazol-3-ylamino)-N-(thiazol-2-yl)benzenesulfonamide] | < 2000
Cc1nn(Cc2ccc(Cl)cc2)c(C)c1Nc1ccc(S(=O)(=O)Nc2nccs2)c(F)c1 [Compound 225, 4-(1-(4-chlorobenzyl)-3,5-dimethyl-1H-pyrazol-4-ylamino)-2-fluoro-N-(thiazol-2-yl)benzenesulfonamide] | 2000 to 10000
O=S(=O)(Nc1nccs1)c1ccc(Nc2ccn(Cc3ccc(F)cc3)n2)c(F)c1 [Compound 226, 3-fluoro-4-(1-(4-fluorobenzyl)-1H-pyrazol-3-ylamino)-N-(thiazol-2-yl)benzenesulfonamide] | < 2000
O=S(=O)(Nc1nccs1)c1ccc(Nc2cnn(Cc3ccc(Cl)c(C(F)(F)F)c3)c2)cc1F [Compound 229, 4-(1-(4-chloro-3-(trifluoromethyl)benzyl)-1H-pyrazol-4-ylamino)-2-fluoro-N-(thiazol-2-yl)benzenesulfonamide] | < 2000
COc1ccc(OC(F)(F)F)cc1Cn1cc(Nc2ccc(S(=O)(=O)Nc3nccs3)c(F)c2)cn1 [Compound 230, 2-fluoro-4-(1-(2-methoxy-5-(trifluoromethoxy)benzyl)-1H-pyrazol-4-ylamino)-N-(thiazol-2-yl)benzenesulfonamide] | < 2000
